The assay has as its system asymmetric di-methyl PABP1 in RKO cells. In words: RKO methylation assay, In Cell Western (ICW) for asymmetric di-methyl PABP1. The format is cell-based. To be noted: Homo sapiens, RKO, Cellular potencies, ICW PABP1me2a. A digest of the protocol:
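In-cell Western on fixed RKO cells after 48 h compound exposure: anti-asymmetric di-methyl PABP1 signal at 800 nm over DRAQ5 DNA signal at 700 nm. Percent inhibition set between DMSO wells and wells with 20 μM reference compound; IC50 curves fitted in triplicate.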

Usually IC50 stands for the concentration needed to halve the response being measured. Read a high IC50 as weaker potency.

As for `CNCC(O)COc1cccc(-c2nc(NCC3(C)CCOCC3)c(C)c(-c3c(C)noc3C)n2)c1` (centres unmarked) [Example 115-1a], the IC50 was under 5 µM.
For `CNCC(O)COc1cccc(-c2nc(N(C)C3CCOCC3)c(C)c(N3CCNC[C@@H]3C)n2)c1` (some centres unmarked) [Example 567-1a], the IC50 lay in the range of 10 to 20 µM.
For `CNCC(O)COc1cccc(-c2nc(NC3CCOC3)c(C)c(C(=O)NC3CCN(C)CC3)n2)c1` (centres unmarked) [Example 397-1a] the value was 10 to 20 µM.
`CNCC(O)COc1cccc(-c2nc(NCC3CCN(C4CC4)CC3)c(C)c(-c3c(C)noc3C)n2)c1` (centres unmarked) [Example 283-1a] came in with an IC50 of under 5 µM.
For `CNCC(O)COc1cccc(-c2nc(N3CCC[C@H](O)C3)cc(N(C)C3CCOCC3)n2)c1` (some centres unmarked) [Example 538-1a] the value was 10 to 20 µM.
Compound `CNCC(O)COc1cccc(-c2nc(N[C@@H]3CC[C@H](O)C3)c(C)c(-c3c(C)noc3C)n2)c1` (some centres unmarked) [Example 163-1a] displayed an IC50 of under 5 µM.
The compound `CNC[C@@H](O)COc1ccc(Cl)c(-c2nc(-c3c(C)noc3C)c(C)c(C3CC3)n2)c1` [Example 205-3] came in with an IC50 of under 5 µM.
Compound `CNCC(O)COc1cccc(-c2nc(-c3c(C)noc3C)c(C)c(N3CCO[C@@H](CN(C)C(=O)OC)C3)n2)c1` (some centres unmarked) [Example 149-1a] displayed an IC50 of under 5 µM.
As for `CNCC(O)COc1cccc(-c2nc(NC3CCOC3)c(C)c(N3CCN(C(C)=O)C[C@H]3C)n2)c1` (some centres unmarked) [Example 421-1a], the IC50 lay within 5 to 10 µM.
`CNCC(O)COc1cccc(-c2nc(N[C@@H]3CCOC3)c(C)c(N3CCC3)n2)c1` (some centres unmarked) [Example 377-1a]: the IC50 was 10 to 20 µM.
The compound `CNC[C@H](O)COc1ccc(Cl)c(-c2nc(NCCC(C)(C)OC)c(C)c(-c3c(C)noc3C)n2)c1` [Example 82-3] gave an IC50 of under 5 µM.
In turn, `CNCC(O)COc1cccc(-c2nc(N[C@@H]3COC(=O)C3)c(C)c(-c3c(C)noc3C)n2)c1` (some centres unmarked) [Example 268-1a] had an IC50 of 10 to 20 µM.
Take `CCOC(=O)N1CCC2(CC1)CN(c1nc(-c3cc(OC[C@H](O)CNC)ccc3Cl)nc(-c3c(C)noc3C)c1C)C2` [Example 285-3]: the IC50 was under 5 µM.
`CNCC(O)COc1cccc(-c2nc(N[C@@H]3CCOC3)c(C)c(N3CCN(S(C)(=O)=O)CC3)n2)c1` (some centres unmarked) [Example 434-1a] showed an IC50 of under 5 µM.
For `CNCC(O)COc1cccc(-c2nc(-c3cnc4ncnn4c3)cc(N(C)C3CCOCC3)n2)c1` (centres unmarked) [Example 536-1a], the IC50 was in the range of 5 to 10 µM.
Regarding `CNC[C@@H](O)COc1ccc(Cl)c(-c2nc(NC[C@H]3CCCN3C(=O)OC(C)C)c(C)c(-c3c(C)noc3C)n2)c1` [Example 160-3], the IC50 is under 5 µM.
Compound `CNC[C@@H](O)COc1ccc(F)c(-c2nc(-c3c(C)noc3C)c(C)c(N3Cc4cccnc4C3)n2)c1` [Example 114-3] showed an IC50 of under 5 µM.
With `CNC[C@@H](O)COc1cccc(-c2nc(NC3CCOCC3)c(C)c(-c3c(C)noc3C)n2)c1` [Example 56-1a], the IC50 was under 5 µM.
`CNCC(O)COc1cccc(-c2nc(N[C@H]3C[C@@H](O)C3)c(C)c(-c3c(C)noc3C)n2)c1` (some centres unmarked) [Example 256-1a] returned an IC50 of under 5 µM.
`CNCC(O)COc1cccc(-c2nc(NCCCN3CCCCCC3=O)cc(-c3c(C)noc3C)n2)c1` (centres unmarked) [Example 99-1a]: the IC50 was under 5 µM.
In turn, `CNCC(O)COc1cccc(-c2nc(-c3c(C)noc3C)c(C)c(N3CCC[C@H](N(C)C(=O)OC)C3)n2)c1` (some centres unmarked) [Example 15-3] came in with a concentration for half-maximal inhibition (IC50) of 5 to 10 µM.
As to `CNCC(O)COc1ccc(Cl)c(-c2nc(N[C@H]3CCN(C(=O)OC)C[C@H]3F)c(C)c(-c3c(C)noc3C)n2)c1` (some centres unmarked) [Example 4-3], the IC50 is under 5 µM.
The compound `CNCC(O)COc1cccc(-c2nc(NC3(C)CCOCC3)c(F)c(-c3c(C)noc3C)n2)c1` (centres unmarked) [Example 159-1a] displayed an IC50 of 10 to 20 µM.
`CNCC(O)COc1cccc(-c2nc(N[C@@H]3CCOC3)c(C)c(N3CC4CCC(C3)O4)n2)c1` (some centres unmarked) [Example 412-1a] displayed an IC50 of 10 to 20 µM.
Compound `CCO[C@@H]1CCC[C@H]1Nc1nc(-c2cc(OC[C@H](O)CNC)ccc2Cl)nc(-c2c(C)noc2C)c1C` [Example 240-3] came in with an IC50 of under 5 µM.
Consider `CNCC(O)COc1cccc(-c2nc(-c3c(C)noc3C)c(C)c(N3CCO[C@@H](CN(C)C)C3)n2)c1` (some centres unmarked) [Example 148-1a], for which the IC50 was under 5 µM.
Regarding `CNC[C@@H](O)COc1ccc(Cl)c(-c2nc(-c3c(C)noc3C)c(C)c(N3CC4(CCN(C(=O)OC)CC4)C3)n2)c1` [Example 109-3], the IC50 was under 5 µM.
Turning to `CNC[C@@H](O)COc1ccc(Cl)c(-c2nc(NC3CC(F)(F)C3)c(C)c(-c3c(C)noc3C)n2)c1` [Example 189-3], the IC50 is under 5 µM.
The compound `CNCC(O)COc1cccc(-c2nc(-c3ccc(N4CCOCC4)nn3)cc(N(C)C3CCOCC3)n2)c1` (centres unmarked) [Example 512-1a] had an IC50 of 5 to 10 µM.
For `CNCC(O)COc1cccc(-c2nc(-c3c(C)noc3C)cc(N3CCN(C)[C@@H](C)C3)n2)c1` (some centres unmarked) [Example 93-1a], the IC50 was under 5 µM.
`CNCC(O)COc1cccc(-c2nc(-c3cnc4n3CCNC4)cc(N(C)C3CCOCC3)n2)c1` (centres unmarked) [Example 563-1a] showed an IC50 of 10 to 20 µM.
Regarding `CNCC(O)COc1cccc(-c2nc(-c3c(C)noc3C)c(C)c(N3CCO[C@@H](C)C3)n2)c1` (some centres unmarked) [Example 209-1a], the IC50 was in the range of 5 to 10 µM.
For `CNCC(O)COc1cccc(-c2nc(N[C@H]3C[C@H](C(=O)OC)C3)c(C)c(-c3c(C)noc3C)n2)c1` (some centres unmarked) [Example 221-1a] the value was under 5 µM; for `CNCC(O)COc1cccc(-c2nc(N[C@H]3C[C@H](C(C)(C)O)C3)c(C)c(-c3c(C)noc3C)n2)c1` (some centres unmarked) [Example 231-1a], under 5 µM.
`CNCC(O)COc1cccc(-c2nc(-c3cnc4c(C(=O)N(C)C)cnn4c3)cc(N(C)C3CCOCC3)n2)c1` (centres unmarked) [Example 514-1a]: the IC50 was 5 to 10 µM.
`CNCC(O)COc1cccc(-c2nc(-c3c(C)noc3C)c(C)c(N3CC(NC(=O)OC)C3)n2)c1` (centres unmarked) [Example 12-3] showed an IC50 of under 5 µM.
The compound `CNCC(O)COc1cccc(-c2nc(OCC3CCN(C(=O)OC)CC3)c(C)c(-c3c(C)noc3C)n2)c1` (centres unmarked) [Example 284-1a] had an IC50 of under 5 µM.
The compound `CNCC(O)COc1cccc(-c2nc(N[C@@H]3CCOC3)c(Cl)c(N3CCOCC3)n2)c1` (some centres unmarked) [Example 376-1a] gave an IC50 of 5 to 10 µM.
For `CNC[C@@H](O)COc1ccc(Cl)c(-c2nc(-c3c(C)noc3C)c(C)c(N3Cc4ccncc4C3)n2)c1` [Example 159-3] the value was under 5 µM; for `CNCC(O)COc1cccc(-c2nc(NCC3(N(C)C)CCOCC3)c(C)c(-c3c(C)noc3C)n2)c1` (centres unmarked) [Example 140-1a], under 5 µM.
Compound `CNCC(O)COc1cccc(-c2nc(SC)c(C)c(-c3c(C)noc3C)n2)c1` (centres unmarked) [Example 53-1a] came in with an IC50 of 10 to 20 µM.
`CNCC(O)COc1ccc(Cl)c(-c2nc(NC3CC(C)N(C(=O)OC)C(C)C3)c(C)c(-c3c(C)noc3C)n2)c1` (centres unmarked) [Example 46-3] showed an IC50 of under 5 µM.
In turn, `CNCC(O)COc1cccc(-c2nc(-c3c(C)noc3C)cc(N3CCN(C(=O)N(C)C)CC3)n2)c1` (centres unmarked) [Example 120-1a] showed an IC50 of under 5 µM.
For `CNCC(O)COc1cccc(-c2nc(-c3c(C)noc3C)c(C)c(N3CC[C@@H](S(C)(=O)=O)C3)n2)c1` (some centres unmarked) [Example 111-1a] the value was 5 to 10 µM; for `CNCC(O)COc1cccc(-c2nc(N3CCN(C)[C@@H](C)C3)cc(N(C)C3CCOCC3)n2)c1` (some centres unmarked) [Example 502-1a], under 5 µM.
For `CNCC(O)COc1ccc(Cl)c(-c2nc(NC3CCOCC3)c(C)c(-c3c(C)noc3C)n2)c1` (centres unmarked) [Example 29-3] the value was under 5 µM; for `CNC[C@H](O)COc1ccc(Cl)c(-c2nc(-c3c(C)noc3C)c(C)c(N3Cc4cc(Cl)cnc4C3)n2)c1` [Example 87-3], under 5 µM.
Turning to `CNC[C@H](O)COc1ccc(Cl)c(-c2nc(N[C@H]3C[C@@H](OC)C3)c(C)c(-c3c(C)noc3C)n2)c1` [Example 54-3], the IC50 was under 5 µM.
As to `CCS(=O)(=O)N1CCN(c2nc(-c3cccc(OCC(O)CNC)c3)nc(NC3CCOC3)c2C)CC1(C)C` (centres unmarked) [Example 448-1a], the IC50 was under 5 µM.
`CCOC(=O)N1CCC[C@@H]1CCNc1nc(-c2cc(OC[C@H](O)CNC)ccc2Cl)nc(-c2c(C)noc2C)c1C` [Example 136-3] displayed an IC50 of under 5 µM.
Regarding `CNCC(O)COc1cc(Cl)cc(-c2nc(-c3cnc4ccccc4n3)c(C)c(N(C)C3CCOCC3)n2)c1` (centres unmarked) [Example 612-1a], the IC50 lay in the range of 10 to 20 µM.
As for `CNC[C@@H](O)COc1ccc(Cl)c(-c2nc(N[C@H]3CCO[C@@H](C)C3)c(C)c(-c3c(C)noc3C)n2)c1` [Example 128-3], the IC50 is under 5 µM.
As for `CNCC(O)COc1cccc(-c2nc(N[C@@H]3CCOC3)c(C)c(N3CCC4(CN(CC(F)F)C4)C3)n2)c1` (some centres unmarked) [Example 475-1a], the IC50 was in the range of 5 to 10 µM.
In turn, `CCOC(=O)N1CCCC[C@@H]1CNc1nc(-c2cc(OC[C@H](O)CNC)ccc2Cl)nc(-c2c(C)noc2C)c1Cl` [Example 153-3] displayed an IC50 of under 5 µM.
For `CNCC(O)COc1cccc(-c2nc(-c3c(C)noc3C)c(C)c(N(C)C3CCN(C(=O)OC)CC3)n2)c1` (centres unmarked) [Example 89-1a] the value was under 5 µM.
On to `CNCC(O)COc1cccc(-c2nc(-c3c(C)noc3C)cc(N(C)c3cnc(C)nc3)n2)c1` (centres unmarked) [Example 61-1a], for which the IC50 lay within 10 to 20 µM.
For `CNCC(O)COc1cccc(-c2nc(N[C@H]3CC[C@H](OC)C3)c(C)c(-c3c(C)noc3C)n2)c1` (some centres unmarked) [Example 234-1a] the value was under 5 µM; for `CNCC(O)COc1cccc(-c2nc(-c3csnc3C)cc(N(C)C3CCOCC3)n2)c1` (centres unmarked) [Example 493-1a], under 5 µM; for `CC[C@H]1CN(c2nc(-c3cccc(OCC(O)CNC)c3)nc(-c3c(C)noc3C)c2C)CCN1S(C)(=O)=O` (some centres unmarked) [Example 155-1a], under 5 µM.
In turn, `CCOC(=O)N1CCOC[C@@H]1CNc1nc(-c2cc(OC[C@@H](O)CNC)ccc2Cl)nc(-c2c(C)noc2C)c1C` [Example 42-3] showed an IC50 of under 5 µM.
For `CNCC(O)COc1cccc(-c2nc(-c3c(C)noc3C)cc(N3C[C@H]4C[C@@H]3CN4)n2)c1` (some centres unmarked) [Example 109-1a] the value was 10 to 20 µM.
For `CNC[C@H](O)COc1ccc(Cl)c(-c2nc(-c3c(C)noc3C)c(C)c(N(C)[C@H]3C[C@@](C)(OC)C3)n2)c1` [Example 95-3] the value was under 5 µM.

For the origin of these results see patent publication US10633389B2, “CARM1 inhibitors and uses thereof” (Epizyme, Inc., priority 2013, dated 2020).
